Source: paper PMC5666896, “Molecular Docking and Screening Studies of New Natural Sortase A Inhibitors” (International Journal of Molecular Sciences, 2017)
“Also recorded” adds a separate entry of the source. Read-outs that look alike come from different tables or passages of the source.

Legend:
SrtA = target: T1, SrtA (Staphylococcus aureus, UniProt Q2FV99); test: Sortase A activity assay (FRET, SensoLyte 520 kit); assay type: biochemical, S. aureus; settings: for SrtA inhibitory activity relative to myricetin (fold lower; myricetin IC50 fold lower than this compound): ratio of IC50 values to myricetin
T1 construct: purchased Anaspec, San Jose, CA, USA
T1 sequence (Q2FV99 whole entry): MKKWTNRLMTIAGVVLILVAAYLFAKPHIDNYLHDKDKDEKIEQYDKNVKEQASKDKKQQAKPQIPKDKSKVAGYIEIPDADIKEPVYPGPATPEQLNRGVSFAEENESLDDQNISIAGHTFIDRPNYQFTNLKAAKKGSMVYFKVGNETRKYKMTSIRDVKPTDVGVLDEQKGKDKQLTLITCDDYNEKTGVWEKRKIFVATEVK
Description: The inhibitory activity of all of the compounds was determined by quantifying the increase in fluorescence intensity upon a cleavage 5-FAM/QXL® FRET substrate using a SensoLyte® 520 Sortase A Activity Assay Kit (Anaspec, San Jose, CA, USA). According to kit protocol, reactions were performed in a 96-well plate, with each well containing 10 μL test compound solution, 40 μL enzyme solution, and 50 μL sortase substrate solution. All compounds were dissolved in dimethyl sulfoxide (DMSO) and diluted with sterilized distilled water. The final concentration of DMSO was 1%. Each compound diluted in buffer to the tested concentration and was checked for intrinsic fluorescence. According to the kit protocol, we used the enzyme without the test compound as a control, a 1% DMSO control, and a substrate control. We used the kit inhibitor, 4-hydroxymercuribenzoic acid (HMB), as the positive control. Reactions were carried out for 1 h at room temperature and analyzed fluorometrically (SpectraMAX Gemini XS, CA, USA) at Ex/Em = 490 nm/520 nm. All reported values are the means of triplicate assays.

Daphnia magna = test: in vivo; settings: for Maximum lethality: after 48 h, tested 0.5 to 100 μM; for Highest lethality: after 48 h of exposure at 100 μM; for Toxicity on Daphnia magna (result in words): in vivo
Description: (§1) The Daphnia magna test was performed in 4 mL 12-tissue culture wells, using 10 daphnids/well, with each sample being tested in duplicate. […] All experiments were conducted in the dark, in a plant growth chamber (Sanyo MLR-351 H, San Diego, CA, USA) at 25 ± 1 °C [32, 33].
(§2) Statistical analysis of the inhibitory effect on SrtA and the Daphnia magna bioassay was performed using GraphPad Prism version 5.01 software (GraphPad Software, Inc., La Jolla, CA, USA). A student’s t-test (p < 0.05) was applied in order to analyze the results obtained from replicates. […] The inhibition (I %) and lethality percentage (L %) values were calculated and plotted against the logarithm of concentrations and the corresponding curves were calculated using the least squares fit method. […] Whenever the obtained results permitted, the upper and lower limits of the 95% confidence interval (95% CI) and the correlation coefficient (r^2) were calculated.

[1] = Solubility in water (observation during FRET testing)
in vivo = settings: in vivo
Description: as §1, §2

O=C(O)/C=C/c1ccc(O)c(O)c1 [caffeic acid, Caffeic acid]
SrtA inhibition (result in words) (SrtA): inactive

COc1cc(/C=C/C(=O)O)ccc1O [trans-ferulic acid, trans-Ferulic acid]
SrtA inhibition (result in words) (SrtA): inactive

C[C@@H]1O[C@@H](OC[C@H]2O[C@@H](Oc3c(-c4ccc(O)c(O)c4)oc4cc(O)cc(O)c4c3=O)[C@H](O)[C@@H](O)[C@@H]2O)[C@H](O)[C@H](O)[C@H]1O [Rutin trihydrate]
SrtA inhibition (result in words) (SrtA): statistically significant SrtA inhibition
inhibition at 500 µM (SrtA): 28.7%
Maximum lethality (Daphnia magna): ≤ 30%
Highest lethality (Daphnia magna): ≤ 30%

COc1cc([C@@H]2c3cc4c(cc3[C@H](O)[C@H]3COC(=O)[C@H]23)OCO4)cc(OC)c1OC [Podophyllotoxin]
SrtA inhibition (result in words) (SrtA): statistically significant SrtA inhibition
inhibition at 50 µM (SrtA): 26.4%
Solubility in water (result in words) [1]: low aqueous solubility
Toxicity on Daphnia magna (result in words) (Daphnia magna): high level of toxicity
LC50 at 48 h (in vivo): 6.47 µM

C[C@@H]1O[C@@H](OC[C@H]2O[C@@H](Oc3c(-c4ccc(OCCO)c(OCCO)c4)oc4cc(OCCO)cc(O)c4c3=O)[C@H](O)[C@@H](O)[C@@H]2O)[C@H](O)[C@H](O)[C@H]1O [Troxerutin]
SrtA inhibition (result in words) (SrtA): statistically significant SrtA inhibition
inhibition at 500 µM (SrtA): 23.5%
Maximum lethality (Daphnia magna): ≤ 30%
Highest lethality (Daphnia magna): ≤ 30%

COc1cc2c(cc1OC)-c1cc3ccc(OC)c(OC)c3c[n+]1CC2 [Palmatine chloride]
IC50 (SrtA): 52.8 µM
SrtA inhibition (result in words) (SrtA): statistically significant SrtA inhibition
inhibition at 500 µM (SrtA): 85.3%
SrtA inhibitory activity relative to myricetin (fold lower; myricetin IC50 fold lower than this compound) (SrtA): eleven-fold
Maximum lethality (Daphnia magna): ≤ 30%
Highest lethality (Daphnia magna): ≤ 30%

O=c1c(O)c(-c2cc(O)c(O)c(O)c2)oc2cc(O)cc(O)c12 [Myricetin]
IC50 (SrtA): 4.63 µM
SrtA inhibition (result in words) (SrtA): statistically significant SrtA inhibition
inhibition at 100 µM (SrtA): 92%
Maximum lethality (Daphnia magna): ≤ 30%
Highest lethality (Daphnia magna): ≤ 30%

O=C(O)[C@]1(O)C[C@@H](O)[C@@H](O)[C@H](O)C1 [Quinic acid]
SrtA inhibition (result in words) (SrtA): statistically significant SrtA inhibition
inhibition at 500 µM (SrtA): 19.6%

C[C@@H]1CC[C@H]2[C@@H](C)C(=O)O[C@@H]3O[C@@]4(C)CC[C@@H]1[C@]32OO4 [Artemisinin, reference compound]
SrtA inhibition (result in words) (SrtA): statistically significant SrtA inhibition
inhibition at 50 µM (SrtA): 5.32%

O=c1ccc2cc(O)c(O)cc2o1 [Esculetin]
IC50 (SrtA): 36.2 µM
SrtA inhibition (result in words) (SrtA): statistically significant SrtA inhibition
inhibition at 250 µM (SrtA): 83.6%
SrtA inhibitory activity relative to myricetin (fold lower; myricetin IC50 fold lower than this compound) (SrtA): eight-fold
Maximum lethality (Daphnia magna): ≤ 30%
Highest lethality (Daphnia magna): ≤ 30%

O=C(O)c1cc[c]([Hg][OH])cc1 [HMB, 4-hydroxymercuribenzoic acid, reference compound]
Inhibition (%) (SrtA; 5 μM, after 1 h of incubation): 93.87%
IC50 (SrtA; after 1 h of incubation, read-out: IC50): 0.114 µM

O=c1cc(-c2ccccc2)oc2cc(O)cc(O)c12 [Chrysin]
SrtA inhibition (result in words) (SrtA): statistically significant SrtA inhibition
LC50 at 48 h (in vivo): 17.7 µM

O=c1ccc2cc(O[C@@H]3O[C@H](CO)[C@@H](O)[C@H](O)[C@H]3O)c(O)cc2o1 [Esculin, Esculin sesquihydrate]
SrtA inhibition (result in words) (SrtA): low SrtA inhibition

O=c1ccc2ccc(O)cc2o1 [Umbelliferone]
SrtA inhibition (result in words) (SrtA): statistically significant SrtA inhibition; also recorded: small inhibitory effect
inhibition at 250 µM (SrtA): 4.04%
LC50 at 48 h (in vivo): 105 µM

O=C(/C=C/C=C/c1ccc2c(c1)OCO2)N1CCCCC1 [Piperine]
SrtA inhibition (result in words) (SrtA): statistically significant SrtA inhibition
inhibition at 10 µM (SrtA): 14.9%
Solubility in water (result in words) [1]: low solubility in water; also recorded: low aqueous solubility
Toxicity on Daphnia magna (result in words) (Daphnia magna): high level of toxicity
LC50 at 24 h (in vivo): 145 µM
LC50 at 48 h (in vivo): 3.45 µM

O=c1ccc2ccccc2o1 [coumarin, Coumarin]
SrtA inhibition (result in words) (SrtA): small inhibitory effect

O=c1c(-c2ccc(O)cc2)coc2cc(O)cc(O)c12 [Genistein]
inhibition at 500 µM (SrtA): 9.63%

C[C@@H]1O[C@@H](O[C@H]2[C@H](Oc3cc(O)c4c(c3)O[C@H](c3ccc(O)cc3)CC4=O)O[C@H](CO)[C@@H](O)[C@@H]2O)[C@H](O)[C@H](O)[C@H]1O [naringin, Naringin]
SrtA inhibition (result in words) (SrtA): statistically significant SrtA inhibition
Maximum lethality (Daphnia magna): ≤ 30%
